One molecule from EP0221208B1, “Hair growth promoting compositions” (MEIJI SEIKA KAISHA LTD., priority 1985, dated 1987) can be followed below.

For this experiment, the system named is Cynomolgus monkeys (Crab-eating macaques). In words: Increase in temperature of the true skin after application to the skin surface (Test No. 2, net effect TE). It is filed as in vivo. The following applies: Test (ii); ester as penetration agent at 0.5% (w/v) or more in gel-like tonic formulation containing Substance MH-548. The procedure: For the purpose of confirming whether Substance P or Substance P-related peptide of the formula (II) is actually effective to increase the blood flow in the capillary blood vessels at a local area of the skin, we have conducted some experiments where the hair growth promoting formulation of this invention was applied to a local skin surface of monkies, and an increase in the temperature of the underlying true skin tissue below the local skin surface was measured, which should be considered to be invoked by such increase in the local blood flow at the local skin site owing to the vasodilating activity of Substance P or Substance P-related peptide of the formula (II).
Cynomolgus monkeys (Crab-eating macaques) (female, body weight 3.8-4.2 kg) were fixed each in a device for fixing the monkey. The hair was cut off from an area in the upper arms of each monkey. A probe of a thermometer for measurement of the temperature in a deep place (a thermometer commercially available from Telmo Co., Ltd., Japan) was sent into the hair-removed areas of each upper arm of the monkey, and the temperature in the true skin layer of the left and right upper arms of the monkey was measured before the administration of the active peptide for promoting the hair growth was made. […]
Thus, the following parameters were evaluated. […]

In the case of `CCOC(=O)CCCCCCCCC(=O)OCC` [di-ethyl sebacate], the “effect of increasing the temperature in the true skin (TE)” value was “better effect than isopropyl myristate and di-isopropyl adipate”.
